Source: PubChem BioAssay (NCI)
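Grown in 96-well plates, cells were treated for 48 hours with each compound at five concentrations. Insufficient inhibition: endpoint recorded as highest concentration tested. The concentration for full growth arrest is given as TGI.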

Legend:
Experiment in all cases: NCI-60 cell line screen, 48 h
SF-268 CNS = system: SF-268 CNS
786-0 renal = system: 786-0 renal
U251 CNS = system: U251 CNS
OVCAR-8 ovarian = system: OVCAR-8 ovarian
SR leukemia = system: SR leukemia
HCC-2998 colon = system: HCC-2998 colon
HOP-62 NSCLC = system: HOP-62 NSCLC
DLD-1 colon = system: DLD-1 colon
XF 498 CNS = system: XF 498 CNS
MALME-3M melanoma = system: MALME-3M melanoma
RPMI-8226 leukemia = system: RPMI-8226 leukemia
SK-OV-3 ovarian = system: SK-OV-3 ovarian
HL-60(TB) leukemia = system: HL-60(TB) leukemia
SF-295 CNS = system: SF-295 CNS
KM20L2 colon = system: KM20L2 colon
HT29 colon = system: HT29 colon
SNB-75 CNS = system: SNB-75 CNS
K-562 leukemia = system: K-562 leukemia
EKVX NSCLC = system: EKVX NSCLC
HCT-15 colon = system: HCT-15 colon
UO-31 renal = system: UO-31 renal
SNB-19 CNS = system: SNB-19 CNS
OVCAR-5 ovarian = system: OVCAR-5 ovarian
RXF 393 renal = system: RXF 393 renal
OVCAR-3 ovarian = system: OVCAR-3 ovarian
SK-MEL-2 melanoma = system: SK-MEL-2 melanoma
SW-620 colon = system: SW-620 colon
M14 melanoma = system: M14 melanoma
NCI-H522 lung = system: NCI-H522 lung
M19-MEL melanoma = system: M19-MEL melanoma
MOLT-4 leukemia = system: MOLT-4 leukemia
SK-MEL-5 melanoma = system: SK-MEL-5 melanoma
SK-MEL-28 melanoma = system: SK-MEL-28 melanoma
UACC-62 melanoma = system: UACC-62 melanoma
IGROV1 ovarian = system: IGROV1 ovarian
LXFL 529 NSCLC = system: LXFL 529 NSCLC
HCT-116 colon = system: HCT-116 colon
NCI-H460 lung = system: NCI-H460 lung
CAKI-1 renal = system: CAKI-1 renal
NCI-H226 lung = system: NCI-H226 lung
KM12 colon = system: KM12 colon
SN12C renal = system: SN12C renal
TK-10 renal = system: TK-10 renal
DMS 114 small cell lung = system: DMS 114 small cell lung
NCI-H23 lung = system: NCI-H23 lung
DMS 273 small cell lung = system: DMS 273 small cell lung
LOX IMVI melanoma = system: LOX IMVI melanoma
COLO 205 colon = system: COLO 205 colon
OVCAR-4 ovarian = system: OVCAR-4 ovarian
UACC-257 melanoma = system: UACC-257 melanoma
A549 NSCLC = system: A549 NSCLC
HOP-92 NSCLC = system: HOP-92 NSCLC
ACHN renal = system: ACHN renal
CCRF-CEM leukemia = system: CCRF-CEM leukemia
SNB-78 CNS = system: SNB-78 CNS
A498 renal = system: A498 renal
SF-539 CNS = system: SF-539 CNS

Clc1ccc2c(Cl)ncnc2c1I
TGI (SF-268 CNS): > 100 µM | TGI (786-0 renal): > 100 µM | TGI (U251 CNS): > 100 µM | TGI (OVCAR-8 ovarian): > 100 µM | TGI (SR leukemia): > 100 µM | TGI (HCC-2998 colon): > 100 µM | TGI (HOP-62 NSCLC): > 100 µM | TGI (DLD-1 colon): > 100 µM | TGI (XF 498 CNS): > 100 µM | TGI (MALME-3M melanoma): > 100 µM | TGI (RPMI-8226 leukemia): > 100 µM | TGI (SK-OV-3 ovarian): > 100 µM | TGI (HL-60(TB) leukemia): 44.6 µM | TGI (SF-295 CNS): > 100 µM | TGI (KM20L2 colon): > 100 µM | TGI (HT29 colon): > 100 µM | TGI (SNB-75 CNS): 75 µM | TGI (K-562 leukemia): > 100 µM | TGI (EKVX NSCLC): 99.4 µM | TGI (HCT-15 colon): > 100 µM | TGI (UO-31 renal): > 100 µM | TGI (SNB-19 CNS): > 100 µM | TGI (OVCAR-5 ovarian): > 100 µM | TGI (RXF 393 renal): > 100 µM | TGI (OVCAR-3 ovarian): > 100 µM | TGI (SK-MEL-2 melanoma): > 100 µM | TGI (SW-620 colon): > 100 µM | TGI (M14 melanoma): > 100 µM | TGI (NCI-H522 lung): 56.6 µM | TGI (M19-MEL melanoma): > 100 µM | TGI (MOLT-4 leukemia): 61.4 µM | TGI (SK-MEL-5 melanoma): > 100 µM | TGI (SK-MEL-28 melanoma): > 100 µM | TGI (UACC-62 melanoma): > 100 µM | TGI (IGROV1 ovarian): > 100 µM | TGI (LXFL 529 NSCLC): > 100 µM | TGI (HCT-116 colon): > 100 µM | TGI (NCI-H460 lung): > 100 µM | TGI (CAKI-1 renal): > 100 µM | TGI (NCI-H226 lung): 93.3 µM | TGI (KM12 colon): > 100 µM | TGI (SN12C renal): > 100 µM | TGI (TK-10 renal): > 100 µM | TGI (DMS 114 small cell lung): > 100 µM | TGI (NCI-H23 lung): > 100 µM | TGI (DMS 273 small cell lung): > 100 µM | TGI (LOX IMVI melanoma): > 100 µM | TGI (COLO 205 colon): > 100 µM | TGI (OVCAR-4 ovarian): > 100 µM | TGI (UACC-257 melanoma): > 100 µM | TGI (A549 NSCLC): > 100 µM

Cc1nc2c(s/c(=N\N)n2-c2ccccc2)c(=O)[nH]1
TGI (SF-268 CNS): > 100 µM | TGI (HOP-92 NSCLC): > 100 µM | TGI (786-0 renal): > 100 µM | TGI (ACHN renal): > 100 µM | TGI (U251 CNS): > 100 µM | TGI (CCRF-CEM leukemia): > 100 µM | TGI (OVCAR-8 ovarian): > 100 µM | TGI (SR leukemia): > 100 µM | TGI (HCC-2998 colon): > 100 µM | TGI (HOP-62 NSCLC): > 100 µM | TGI (DLD-1 colon): > 100 µM | TGI (XF 498 CNS): > 100 µM | TGI (MALME-3M melanoma): > 100 µM | TGI (SNB-78 CNS): > 100 µM | TGI (RPMI-8226 leukemia): > 100 µM | TGI (SK-OV-3 ovarian): > 100 µM | TGI (HL-60(TB) leukemia): > 100 µM | TGI (SF-295 CNS): > 100 µM | TGI (KM20L2 colon): > 100 µM | TGI (A498 renal): > 100 µM | TGI (HT29 colon): > 100 µM | TGI (SNB-75 CNS): > 100 µM | TGI (K-562 leukemia): > 100 µM | TGI (EKVX NSCLC): > 100 µM | TGI (HCT-15 colon): > 100 µM | TGI (UO-31 renal): > 100 µM | TGI (SNB-19 CNS): > 100 µM | TGI (OVCAR-5 ovarian): > 100 µM | TGI (RXF 393 renal): > 100 µM | TGI (OVCAR-3 ovarian): > 100 µM | TGI (SK-MEL-2 melanoma): > 100 µM | TGI (SW-620 colon): > 100 µM | TGI (M14 melanoma): > 100 µM | TGI (NCI-H522 lung): > 100 µM | TGI (M19-MEL melanoma): > 100 µM | TGI (MOLT-4 leukemia): > 100 µM | TGI (SK-MEL-5 melanoma): > 100 µM | TGI (SK-MEL-28 melanoma): > 100 µM | TGI (UACC-62 melanoma): > 100 µM | TGI (IGROV1 ovarian): > 100 µM | TGI (LXFL 529 NSCLC): > 100 µM | TGI (HCT-116 colon): > 100 µM | TGI (NCI-H460 lung): > 100 µM | TGI (CAKI-1 renal): > 100 µM | TGI (SF-539 CNS): > 100 µM | TGI (NCI-H226 lung): > 100 µM | TGI (KM12 colon): > 100 µM | TGI (SN12C renal): > 100 µM | TGI (TK-10 renal): > 100 µM | TGI (DMS 114 small cell lung): > 100 µM | TGI (NCI-H23 lung): > 100 µM | TGI (DMS 273 small cell lung): > 100 µM | TGI (LOX IMVI melanoma): > 100 µM | TGI (COLO 205 colon): > 100 µM | TGI (OVCAR-4 ovarian): > 100 µM | TGI (UACC-257 melanoma): > 100 µM | TGI (A549 NSCLC): > 100 µM

COc1ccc(C(=O)O)c2c(=O)c3ccccc3[nH]c12
TGI (SF-268 CNS): > 100 µM | TGI (HOP-92 NSCLC): > 100 µM | TGI (786-0 renal): > 100 µM | TGI (ACHN renal): > 100 µM | TGI (U251 CNS): > 100 µM | TGI (CCRF-CEM leukemia): > 31.6 µM | TGI (OVCAR-8 ovarian): > 100 µM | TGI (SR leukemia): > 100 µM | TGI (HCC-2998 colon): > 100 µM | TGI (HOP-62 NSCLC): > 31.6 µM | TGI (XF 498 CNS): > 100 µM | TGI (MALME-3M melanoma): > 100 µM | TGI (SNB-78 CNS): > 100 µM | TGI (RPMI-8226 leukemia): > 100 µM | TGI (SK-OV-3 ovarian): > 100 µM | TGI (HL-60(TB) leukemia): > 100 µM | TGI (SF-295 CNS): > 100 µM | TGI (KM20L2 colon): > 100 µM | TGI (A498 renal): > 100 µM | TGI (HT29 colon): > 100 µM | TGI (K-562 leukemia): > 100 µM | TGI (EKVX NSCLC): > 100 µM | TGI (HCT-15 colon): > 100 µM | TGI (UO-31 renal): > 100 µM | TGI (SNB-19 CNS): > 100 µM | TGI (OVCAR-5 ovarian): > 100 µM | TGI (RXF 393 renal): > 100 µM | TGI (SK-MEL-2 melanoma): > 100 µM | TGI (SW-620 colon): > 100 µM | TGI (M14 melanoma): > 31.6 µM | TGI (NCI-H522 lung): > 100 µM | TGI (M19-MEL melanoma): > 100 µM | TGI (MOLT-4 leukemia): > 100 µM | TGI (SK-MEL-28 melanoma): > 100 µM | TGI (UACC-62 melanoma): > 100 µM | TGI (IGROV1 ovarian): > 100 µM | TGI (LXFL 529 NSCLC): > 100 µM | TGI (HCT-116 colon): > 100 µM | TGI (NCI-H460 lung): > 100 µM | TGI (CAKI-1 renal): > 100 µM | TGI (SF-539 CNS): > 100 µM | TGI (NCI-H226 lung): > 100 µM | TGI (KM12 colon): > 100 µM | TGI (SN12C renal): > 100 µM | TGI (TK-10 renal): > 100 µM | TGI (NCI-H23 lung): > 100 µM | TGI (DMS 273 small cell lung): > 100 µM | TGI (LOX IMVI melanoma): > 100 µM | TGI (COLO 205 colon): > 100 µM | TGI (OVCAR-4 ovarian): > 100 µM | TGI (UACC-257 melanoma): > 100 µM | TGI (A549 NSCLC): > 100 µM
